Article PMC12095040, “GRK5 is required for adipocyte differentiation through ERK activation” (International Journal of Obesity (2005), 2024)

Molecular target: GRK5 (Homo sapiens, UniProt P34947)
Experiment: ADP-Glo luminescent kinase assay, casein substrate, […] ATP
Assay type: biochemical

Sequence of GRK5 (P34947 whole entry): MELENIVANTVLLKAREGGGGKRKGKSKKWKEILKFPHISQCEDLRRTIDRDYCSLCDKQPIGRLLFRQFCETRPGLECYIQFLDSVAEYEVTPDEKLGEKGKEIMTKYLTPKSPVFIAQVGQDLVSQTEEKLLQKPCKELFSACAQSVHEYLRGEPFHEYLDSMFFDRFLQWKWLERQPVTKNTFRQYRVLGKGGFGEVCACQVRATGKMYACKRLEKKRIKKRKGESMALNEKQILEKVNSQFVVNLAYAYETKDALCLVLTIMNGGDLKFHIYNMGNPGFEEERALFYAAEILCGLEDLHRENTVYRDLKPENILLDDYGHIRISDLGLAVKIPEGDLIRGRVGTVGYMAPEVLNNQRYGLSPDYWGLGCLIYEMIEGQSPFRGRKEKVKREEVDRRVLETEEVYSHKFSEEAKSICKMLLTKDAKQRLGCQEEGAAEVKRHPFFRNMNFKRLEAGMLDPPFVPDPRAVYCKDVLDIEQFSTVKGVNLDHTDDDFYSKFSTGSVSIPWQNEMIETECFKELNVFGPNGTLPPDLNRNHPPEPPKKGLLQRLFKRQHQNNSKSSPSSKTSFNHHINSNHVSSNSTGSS

IC50: 49.7 µM
Structure (SMILES): COc1cc(Nc2cc3c(cn2)nc(-c2ccco2)n3C)cc(OC)c1OC [GRK5-IN-2]
